Results taken from article PMC8048867 (Chemmedchem, 2020).
pKi: −log10 of the molar value.

Assays:
ADAM10 = target: T1, ADAM10 (Homo sapiens, UniProt O14672); experiment: off-target proteinase inhibition ADAM10; assay type: biochemical; settings: read-out: Relative enzyme activity ADAM10
T1 sequence (O14672 214-748): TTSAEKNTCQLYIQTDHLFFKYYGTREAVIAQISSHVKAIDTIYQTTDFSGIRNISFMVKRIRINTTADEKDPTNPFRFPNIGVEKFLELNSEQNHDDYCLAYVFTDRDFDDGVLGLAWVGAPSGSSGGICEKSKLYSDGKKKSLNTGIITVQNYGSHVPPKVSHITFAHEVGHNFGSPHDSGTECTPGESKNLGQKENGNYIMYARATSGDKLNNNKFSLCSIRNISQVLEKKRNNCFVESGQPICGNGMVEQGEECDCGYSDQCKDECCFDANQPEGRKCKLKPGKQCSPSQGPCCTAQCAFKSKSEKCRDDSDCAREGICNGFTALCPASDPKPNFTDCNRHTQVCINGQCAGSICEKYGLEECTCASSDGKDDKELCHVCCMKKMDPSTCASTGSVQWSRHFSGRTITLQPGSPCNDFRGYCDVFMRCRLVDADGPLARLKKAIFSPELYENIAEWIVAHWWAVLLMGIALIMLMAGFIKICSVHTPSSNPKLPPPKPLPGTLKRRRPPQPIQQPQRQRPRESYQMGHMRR

MMP13 = MMP13 (Homo sapiens, UniProt P45452); experiment: off-target proteinase inhibition MMP13; assay type: biochemical; settings: read-out: Relative enzyme activity MMP13
MMP9 = MMP9 (Homo sapiens, UniProt P14780); experiment: off-target proteinase inhibition MMP9; assay type: biochemical; settings: read-out: Relative enzyme activity MMP9
[1] = target: T2, recombinant human meprin α (Homo sapiens, UniProt Q16819); experiment: meprin α inhibition, quenched fluorogenic peptide substrate assay; assay type: biochemical; settings: for SF: selectivity factor (K i app meprin β/K i app meprin α): meprin α over meprin β
T2 sequence (Q16819 66-746): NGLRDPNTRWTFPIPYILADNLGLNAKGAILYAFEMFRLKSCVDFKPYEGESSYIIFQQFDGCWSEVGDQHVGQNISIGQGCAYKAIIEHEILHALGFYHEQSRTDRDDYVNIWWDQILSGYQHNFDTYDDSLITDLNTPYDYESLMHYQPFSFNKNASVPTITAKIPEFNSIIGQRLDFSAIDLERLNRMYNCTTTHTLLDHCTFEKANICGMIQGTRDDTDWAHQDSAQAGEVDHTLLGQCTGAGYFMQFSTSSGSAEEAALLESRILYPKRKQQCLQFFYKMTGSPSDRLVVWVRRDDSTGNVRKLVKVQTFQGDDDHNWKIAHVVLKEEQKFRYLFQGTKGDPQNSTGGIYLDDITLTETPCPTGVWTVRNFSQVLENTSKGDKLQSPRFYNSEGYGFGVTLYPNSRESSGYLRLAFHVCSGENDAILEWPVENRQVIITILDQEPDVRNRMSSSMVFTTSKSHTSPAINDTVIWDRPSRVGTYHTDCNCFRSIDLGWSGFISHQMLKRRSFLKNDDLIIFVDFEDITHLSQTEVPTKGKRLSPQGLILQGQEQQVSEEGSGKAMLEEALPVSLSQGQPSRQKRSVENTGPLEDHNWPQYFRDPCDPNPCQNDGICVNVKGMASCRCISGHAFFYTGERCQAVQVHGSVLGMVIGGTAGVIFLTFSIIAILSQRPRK

ADAM17 = ADAM17 (Homo sapiens, UniProt P78536); experiment: off-target proteinase inhibition ADAM17; assay type: biochemical; settings: read-out: Relative enzyme activity ADAM17
[2] = target: T3, recombinant human meprin β (Homo sapiens, UniProt Q16820); experiment: meprin β inhibition, quenched fluorogenic peptide substrate assay; assay type: biochemical
T3 sequence (Q16820 62-701): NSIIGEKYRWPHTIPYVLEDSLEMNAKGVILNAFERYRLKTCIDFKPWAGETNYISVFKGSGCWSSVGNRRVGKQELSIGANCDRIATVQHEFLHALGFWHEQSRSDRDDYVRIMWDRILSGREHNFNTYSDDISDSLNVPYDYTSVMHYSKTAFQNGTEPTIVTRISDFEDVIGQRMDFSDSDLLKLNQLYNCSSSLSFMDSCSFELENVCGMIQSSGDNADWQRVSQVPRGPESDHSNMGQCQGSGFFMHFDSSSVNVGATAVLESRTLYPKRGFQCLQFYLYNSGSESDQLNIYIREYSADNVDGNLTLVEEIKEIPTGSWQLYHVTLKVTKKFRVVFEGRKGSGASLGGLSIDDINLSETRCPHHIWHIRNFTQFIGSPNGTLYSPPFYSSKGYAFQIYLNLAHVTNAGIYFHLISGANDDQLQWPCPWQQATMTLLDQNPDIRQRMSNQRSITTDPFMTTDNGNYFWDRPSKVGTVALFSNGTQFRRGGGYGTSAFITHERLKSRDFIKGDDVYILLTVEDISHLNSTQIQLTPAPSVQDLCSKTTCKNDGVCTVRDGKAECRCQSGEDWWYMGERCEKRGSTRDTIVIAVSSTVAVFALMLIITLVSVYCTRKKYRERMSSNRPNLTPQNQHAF

MMP2 = target: T4, MMP2 (Homo sapiens, UniProt P08253); experiment: off-target proteinase inhibition MMP2; assay type: biochemical; settings: read-out: Relative enzyme activity MMP2
T4 sequence (P08253 110-660): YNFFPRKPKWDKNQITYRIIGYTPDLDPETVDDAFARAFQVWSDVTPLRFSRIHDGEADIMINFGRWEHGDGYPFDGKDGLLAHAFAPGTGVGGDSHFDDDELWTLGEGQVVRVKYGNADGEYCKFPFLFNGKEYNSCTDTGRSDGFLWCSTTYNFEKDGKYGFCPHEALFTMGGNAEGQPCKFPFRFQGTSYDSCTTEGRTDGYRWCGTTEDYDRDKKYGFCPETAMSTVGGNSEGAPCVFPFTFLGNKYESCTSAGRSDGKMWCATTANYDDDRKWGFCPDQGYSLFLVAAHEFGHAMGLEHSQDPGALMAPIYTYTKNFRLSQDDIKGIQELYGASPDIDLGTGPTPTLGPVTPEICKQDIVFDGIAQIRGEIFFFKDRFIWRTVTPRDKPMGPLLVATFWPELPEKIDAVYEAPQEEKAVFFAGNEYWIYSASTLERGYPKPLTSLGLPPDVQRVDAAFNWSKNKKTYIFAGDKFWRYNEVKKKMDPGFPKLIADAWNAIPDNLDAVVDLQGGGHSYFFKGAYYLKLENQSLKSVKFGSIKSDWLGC

mouse ovastacin = target: T5, mouse ovastacin (Mus musculus, UniProt Q6HA09); experiment: ovastacin inhibition, fluorogenic enzyme activity assay
T5 sequence (Q6HA09 86-435 limits assumed): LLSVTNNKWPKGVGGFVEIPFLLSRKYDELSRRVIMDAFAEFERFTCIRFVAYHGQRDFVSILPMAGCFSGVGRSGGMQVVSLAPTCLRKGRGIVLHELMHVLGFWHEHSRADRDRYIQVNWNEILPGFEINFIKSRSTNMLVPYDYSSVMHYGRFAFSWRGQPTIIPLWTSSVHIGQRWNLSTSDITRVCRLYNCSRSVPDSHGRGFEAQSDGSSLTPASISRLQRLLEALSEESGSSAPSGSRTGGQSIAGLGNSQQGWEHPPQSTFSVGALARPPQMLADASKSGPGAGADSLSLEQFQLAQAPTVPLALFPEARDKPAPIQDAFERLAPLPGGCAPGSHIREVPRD

Sequence of MMP9 (P14780 107-707 limits assumed): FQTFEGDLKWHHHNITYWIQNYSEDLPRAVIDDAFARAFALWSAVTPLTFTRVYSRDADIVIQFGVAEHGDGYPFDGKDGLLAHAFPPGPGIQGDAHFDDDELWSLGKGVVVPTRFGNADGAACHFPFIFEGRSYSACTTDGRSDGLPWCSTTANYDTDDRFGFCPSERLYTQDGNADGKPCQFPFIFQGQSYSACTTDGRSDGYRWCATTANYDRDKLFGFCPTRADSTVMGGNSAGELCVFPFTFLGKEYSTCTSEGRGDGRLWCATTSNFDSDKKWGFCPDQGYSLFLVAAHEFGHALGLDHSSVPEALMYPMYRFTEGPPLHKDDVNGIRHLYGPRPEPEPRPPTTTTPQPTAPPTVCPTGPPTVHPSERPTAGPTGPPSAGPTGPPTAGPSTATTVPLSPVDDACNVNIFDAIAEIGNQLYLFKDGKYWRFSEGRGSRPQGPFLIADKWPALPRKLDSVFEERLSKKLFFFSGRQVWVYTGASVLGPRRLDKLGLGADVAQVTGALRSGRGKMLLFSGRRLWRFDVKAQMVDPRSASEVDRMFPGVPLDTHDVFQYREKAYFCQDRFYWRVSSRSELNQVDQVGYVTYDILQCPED
Sequence of ADAM17 (P78536 215-824): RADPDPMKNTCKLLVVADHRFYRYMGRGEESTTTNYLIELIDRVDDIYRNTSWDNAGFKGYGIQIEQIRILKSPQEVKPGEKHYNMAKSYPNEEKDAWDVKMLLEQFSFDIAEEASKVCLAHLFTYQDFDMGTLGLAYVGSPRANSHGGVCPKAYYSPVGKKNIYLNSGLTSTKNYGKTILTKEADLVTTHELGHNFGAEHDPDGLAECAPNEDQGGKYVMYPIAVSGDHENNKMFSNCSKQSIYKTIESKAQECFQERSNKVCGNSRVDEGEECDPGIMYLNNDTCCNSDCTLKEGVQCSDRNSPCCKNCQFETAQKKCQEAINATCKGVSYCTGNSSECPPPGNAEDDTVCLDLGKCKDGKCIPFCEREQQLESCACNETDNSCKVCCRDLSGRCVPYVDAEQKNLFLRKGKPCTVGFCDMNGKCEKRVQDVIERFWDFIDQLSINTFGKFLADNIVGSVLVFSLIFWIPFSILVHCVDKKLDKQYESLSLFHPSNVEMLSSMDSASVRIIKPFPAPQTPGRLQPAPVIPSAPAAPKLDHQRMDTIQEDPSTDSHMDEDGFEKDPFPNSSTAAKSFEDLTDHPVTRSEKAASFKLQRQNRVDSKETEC

Row | SMILES | pKi [1] | SF: selectivity factor (K i app meprin β/K i app meprin α) [1] | pKi [2] | pKi (mouse ovastacin) | SF Meprin α: selectivity factor (K i app ovastacin/K i app meprin α) (mouse ovastacin) | SF Meprin β: selectivity factor (K i app ovastacin/K i app meprin β) (mouse ovastacin) | other results
1 | O=C(CCn1c(-c2ccccc2)ccc1-c1ccccc1)NO [2 b, 3‐(2,5‐Diphenylpyrrol‐1‐yl)propanehydroxamic acid] | 6.13 | 20 | 4.82 |  |  |  | 
2 | O=C(CCn1c(-c2ccccc2)nnc1-c1ccccc1)NO [2 h, 3‐(3,5‐Diphenyl‐1,2,4‐triazol‐4‐yl)propanehydroxamic acid] | 6.51 | 138 | 4.37 | 4.50 | 104 | 0.8 | 
3 | O=C(CCn1nc(-c2ccccc2)cc1-c1ccccc1)NO [3 b, 3‐(3,5‐Diphenylpyrazol‐1‐yl)propanehydroxamic acid] | 6.39 | 38 | 4.81 | 5.96 | 3 | 0.1 | 
4 | O=C(CCn1c(-c2ccccc2)cc2ccccc21)NO [4 b, 3‐(2‐Phenylindol‐1‐yl)propanehydroxamic acid] | 6.38 | 41 | 4.77 | 5.89 | 3.1 | 0.1 | 
5 | O=C(CCn1c(-c2ccccc2)nc2ccccc21)NO [4 d, 3‐(2‐Phenylbenzimidazol‐1‐yl)propanehydroxamic acid] | 5.99 | 27 | 4.55 | 5.01 | 9.5 | 0.4 | 
6 | O=C(Cn1c(-c2ccccc2)nc2cccnc21)NO [4 f, 2‐(2‐Phenylimidazo[4,5‐b]pyridin‐3‐yl)ethanehydroxamic acid] | 6.58 | 17 | 5.34 |  |  |  | 
7 | O=C(Cn1c(-c2ccccc2)nc2ncccc21)NO [4 g, 2‐(2‐Phenylimidazo[4,5‐b]pyridin‐1‐yl)ethane‐hydroxamic acid] | 5.83 | 3 | 5.38 |  |  |  | 
8 | O=C(Cc1c2ccccc2nn1-c1ccccc1)NO [4 h, 2‐(2‐Phenylindazol‐3‐yl)ethanehydroxamic acid] | 6.56 | 12 | 5.47 |  |  |  | 

Further molecules by rising pKi [1], results first:

Row | pKi [1] | SF: selectivity factor (K i app meprin β/K i app meprin α) [1] | pKi [2] | pKi (mouse ovastacin) | SF Meprin α: selectivity factor (K i app ovastacin/K i app meprin α) (mouse ovastacin) | SF Meprin β: selectivity factor (K i app ovastacin/K i app meprin β) (mouse ovastacin) | SMILES | other results
9 | 6.59 | 41 | 4.98 | 5.98 | 4 | 0.1 | O=C(Cn1nc(-c2ccccc2)cc1-c1ccccc1)NO [3 a, 2‐(3,5‐Diphenylpyrazol‐1‐yl)ethanehydroxamic acid] | 
10 | 7.09 | 14 | 5.93 |  |  |  | O=C(Cc1c(-c2ccccc2)[nH]c2ccccc12)NO [4 e, 2‐(2‐Phenyl‐1H‐indol‐3‐yl)ethanehydroxamic acid] | 
11 | 7.70 | 216 | 5.37 |  |  |  | O=C(Cn1c(-c2ccccc2)ccc1-c1ccccc1)NO [2 a, 2‐(2,5‐Diphenylpyrrol‐1‐yl)ethanehydroxamic acid] | remaining activity at 10 µM (ADAM10): 82%; remaining activity at 200 µM (ADAM10): 29%; remaining activity at 10 µM (MMP13): 79%; remaining activity at 200 µM (MMP13): 5%; remaining activity at 10 µM (MMP9): 92%; remaining activity at 200 µM (MMP9): 1%; fold improvement in potency against meprin α compared to amine 1 d ([1]; compared to 1 d): ~400 fold; remaining activity at 10 µM (ADAM17): 82%; remaining activity at 200 µM (ADAM17): 25%; remaining activity at 10 µM (MMP2): 83%; remaining activity at 200 µM (MMP2): 1%
12 | 8.05 | 161 | 5.84 |  |  |  | O=C(Cc1c(-c2ccccc2)nnn1-c1ccccc1)NO [2 j, 2‐(3,5‐Diphenyl‐1,2,3‐triazol‐4‐yl)ethanehydroxamic acid] | 
13 | 8.10 | 27 | 6.66 |  |  |  | CCCCC[C@H](CC(=O)NO)C(=O)N[C@H](C(=O)N1CCC[C@H]1CO)C(C)C [Actinonin, reference compound] | 
14 | 8.52 | 66 | 6.70 | 6.71 | 65 | 1 | O=C(Cc1c(-c2ccccc2)n[nH]c1-c1ccccc1)NO [2 e, 2‐(3,5‐Diphenyl‐1H‐pyrazol‐4‐yl)ethanehydroxamic acid] | remaining activity at 10 µM (ADAM10): 73%; remaining activity at 200 µM (ADAM10): 23%; remaining activity at 10 µM (MMP13): 75%; remaining activity at 200 µM (MMP13): 67%; remaining activity at 10 µM (MMP9): 81%; remaining activity at 200 µM (MMP9): 27%; remaining activity at 10 µM (ADAM17): 61%; remaining activity at 200 µM (ADAM17): 7%; remaining activity at 10 µM (MMP2): 104%; remaining activity at 200 µM (MMP2): 61%
15 | 8.70 | 222 | 6.35 |  |  |  | O=C(Cc1c(-c2ccccc2)ncn1-c1ccccc1)NO [2 i, 2‐(3,5‐Diphenylimidazol‐4‐yl)ethanehydroxamic acid] | 
